Consider 17 compounds from US12649733B2, “3,6-diamino-pyridazin-3-yl derivatives, pharmaceutical compositions containing them and their uses as pro-apoptotic agents” (LES LABORATOIRES SERVIER, priority 2019, dated 2026).

Usually Ki stands for a dissociation constant, usually derived from enzyme kinetics or from competition with a known ligand. Usually IC50 stands for the concentration that gives 50% inhibition.

Experiment [1] deals with T1, BCLXL (Homo sapiens, UniProt Q07817, V10N/V9A). In words: Fluorescence polarisation assay (PUMA-based probe displacement). Further: 20 nM protein, 10 nM fluorescent probe. Format: binding. A general note: Polarisation of emitted light reports the rotation of a fluorescent probe.
For experiment [2], the target named is T1, BCLXL. The experiment in a line: AlphaLISA assay (BIM peptide displacement). As to conditions: 20 pM protein, 1 nM peptide. Format: binding. The method, then: AlphaLISA assay measures an increase in alpha signal upon binding biotinylated GST(1-218)-(FACTOR_XA)-hs ? (2-209)(SEQ ID:02—GST UniProtKB® primary accession number P08515 and BCLXL UniProtKB® primary accession number Q07817-1) coupled to a Streptavidin labeled Alpha donor bead to N-terminally labeled peptide derived from BIM (Fluorescein-betaAla-Ahx-SEQID:05, wherein SEQ ID:05 is […]) coupled to an Anti-FTIC AlphaLISA acceptor bead.
GST(1-218)(FACTOR_XA)-hs ? (2-209) was biotinylated in 50 mM phosphate buffer using a 20 fold excess of EZ Link NHS-LC-Biotin (thermoFisher catalogue number 21336) overnight at 4° C.
The addition of a compound which binds competitively to the same site as the peptide will result in an decrease in the Alpha signal of the available donor bead-protein-peptide-acceptor bead complex due to displacement of the peptide.
An 11-point serial dilution of each compound was prepared in DMSO, the final buffer conditions were 10 mM 4-(2-hydroxyethyl)-1-piperazineethanesulfonic acid [HEPES], 150 mM NaCl, 0.05% Tween 20, pH 7.4 and 4% DMSO. The final protein concentration in the assay was 20 pM with the peptide present at 1 nM). Alpha beads were used at a final concentration of 5 ug/mL. The experiments were incubated for overnight at 23° C. after acceptor bead addition. Finally the donor bead is added and incubated for 2 hours at 23° C. before Alpha signal measured on a Biotek Synergy2 plate reader (Excitation 680 nm, emission 615 nm).
On the technique in general: Alpha assays give light when donor and acceptor beads are brought close together.

Another experiment concerns H146 cells. In words: H146 cell viability, MTT assay. Format: cell-based. As to conditions: Homo sapiens, NCI-H146, 48 h, 48 h exposure. In a few lines: (§1)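 Cells grown in RPMI 1640 with 10% heat-inactivated FBS at 37° C, 5% CO2, exposed 48 h to nine 3.16-fold serial compound dilutions in triplicate. MTT added for 4 h, SDS/HCl solubilisation overnight, absorbance at 540 nm; IC50 by four-parameter fit.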

The subject of a further experiment is MOLT-4 cells. The experiment in a line: MOLT-4 cell viability, MTT assay. Format: cell-based. Conditions: Homo sapiens, MOLT-4, 48 h, 48 h exposure. In a few lines:
as §1

T1 sequence (Q07817 with tags, fused parts or gaps V9A/V10N): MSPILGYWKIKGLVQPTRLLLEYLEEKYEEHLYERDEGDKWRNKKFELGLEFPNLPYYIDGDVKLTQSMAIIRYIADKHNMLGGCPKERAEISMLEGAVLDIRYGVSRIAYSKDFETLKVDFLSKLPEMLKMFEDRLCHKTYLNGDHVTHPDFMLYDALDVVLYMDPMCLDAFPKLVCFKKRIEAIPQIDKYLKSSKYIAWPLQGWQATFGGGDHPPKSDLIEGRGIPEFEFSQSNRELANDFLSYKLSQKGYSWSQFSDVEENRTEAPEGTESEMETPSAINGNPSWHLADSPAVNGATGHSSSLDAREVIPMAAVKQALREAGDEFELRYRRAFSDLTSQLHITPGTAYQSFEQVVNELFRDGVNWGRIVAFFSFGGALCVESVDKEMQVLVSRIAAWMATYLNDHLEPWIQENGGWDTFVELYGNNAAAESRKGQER

On to `Cc1cc(N(C)c2nc(C(=O)O)c(CCCOc3ccccc3F)s2)nnc1Nc1nc2ccccc2s1` [Example 59, 2-({6-[(1,3-Benzothiazol-2-yl)amino]-5-methylpyridazin-3-yl}(methyl)amino)-5-[3-(2-fluorophenoxy)propyl]-1,3-thiazole-4-carboxylic acid], for which the Ki at BCLXL [1] is less than 1 nM. Further, the half-maximal inhibitory concentration (IC50) on BCLXL [2] stood at 0.14 nM; in the experiment on H146 cells, 271 nM; with MOLT-4 cells it was 76.1 nM.
The corresponding values for `COCCCc1sc(N(C)c2cc(C)c(Nc3nc4ccccc4s3)nn2)nc1C(=O)O` [Example 60, 2-({6-[(1,3-Benzothiazol-2-yl)amino]-5-methylpyridazin-3-yl}(methyl)amino)-5-(3-methoxypropyl)-1,3-thiazole-4-carboxylic acid] are 1.5 nM, 0.96 nM, 5800 nM and 2740 nM.
The corresponding values for `Cc1cc(N(C)c2nc(C(=O)O)c(CCCOc3ccccc3)s2)nnc1Nc1nc2ccccc2s1` [Example 63, 2-({6-[(1,3-Benzothiazol-2-yl)amino]-5-methylpyridazin-3-yl}(methyl)amino)-5-(3-phenoxypropyl)-1,3-thiazole-4-carboxylic acid] are less than 1 nM, 0.1 nM, 205 nM and 85.3 nM.
The corresponding values for `COCCCN(c1cc(C)c(Nc2nc3ccccc3s2)nn1)c1nc(C(=O)O)c(CCCOc2ccccc2)s1` [Example 65, 2-{[6-[(1,3-Benzothiazol-2-yl)amino]-5-methylpyridazin-3-yl}(3-methoxypropyl)amino)-5-(3-phenoxypropyl)-1,3-thiazole-4-carboxylic acid] are less than 1 nM, 1 nM, 865 nM and 236 nM.
On to `Cc1cc(N(CCC(O)CO)c2nc(C(=O)O)cs2)nnc1Nc1nc2ccccc2s1` (centres unmarked) [Example 85, 2-[[6-(1,3-Benzothiazol-2-ylamino)-5-methyl-pyridazin-3-yl]-(3,4-dihydroxybutyl)amino]thiazole-4-carboxylic acid], for which, at BCLXL [1], the inhibition constant Ki was less than 1 nM. Moreover, the figures for the IC50 at BCLXL [2], with H146 cells and in the experiment on MOLT-4 cells were 12 nM, greater than 15000 nM and greater than 15000 nM, respectively.
Turning to `Cc1cc(N(C)c2nc(C(=O)O)c(C3CCN(C(=O)c4ccccc4)CC3)s2)nnc1Nc1nc2ccccc2s1` [Example 89, 5-(1-Benzoylpiperidin-4-yl)-2-({6-[(1,3-benzothiazol-2-yl)amino]-5-methylpyridazin-3-yl}(methyl)amino)-1,3-thiazole-4-carboxylic acid], the Ki on BCLXL [1] worked out at 160 nM. Moreover, the 50% inhibitory concentration (IC50) at BCLXL [2] was 150 nM; in the experiment with H146 cells, greater than 15000 nM; in the experiment on MOLT-4 cells, 13100 nM.
Turning to `Cc1cc(N(C)c2ccc(-c3cnn(CC45CC6CC(CC(C6)C4)C5)c3C)c(C(=O)O)n2)nnc1Nc1nc2ccccc2s1` [Example 90, 3-{1-[(Adamantan-1-yl)methyl]-5-methyl-1H-pyrazol-4-yl}-6-({6-[(1,3-benzothiazol-2-yl)amino]-5-methylpyridazin-3-yl}(methyl)amino)pyridine-2-carboxylic acid], the Ki on BCLXL [1] is less than 1 nM. In addition, the IC50 at BCLXL [2] was 0.023 nM; in the experiment with H146 cells it was 201 nM; with MOLT-4 cells it was 23.3 nM.
Consider `Cc1cc(N(C)c2nc(C(=O)O)c(C3CCN(c4ccccc4)CC3)s2)nnc1Nc1nc2ccccc2s1` [Example 91, 2-({6-[(1,3-Benzothiazol-2-yl)amino]-5-methylpyridazin-3-yl}(methyl)amino)-5-(1-phenylpiperidin-4-yl)-1,3-thiazole-4-carboxylic acid], for which the Ki at BCLXL [1] was found to be 6.4 nM. Besides, the 50% inhibitory concentration (IC50) on BCLXL [2] was determined as 5.3 nM; in the experiment on H146 cells, 5390 nM; in the experiment on MOLT-4 cells, 1130 nM.
The corresponding values for `Cc1cc(N(C)c2nc(C(=O)O)c(C3CCN(S(=O)(=O)c4ccccc4)CC3)s2)nnc1Nc1nc2ccccc2s1` [Example 92, 5-[1-(Benzenesulfonyl)piperidin-4-yl]-2-({6-[(1,3-benzothiazol-2-yl)amino]-5-methylpyridazin-3-yl}(methyl)amino)-1,3-thiazole-4-carboxylic acid] are 68 nM, 46 nM, greater than 15000 nM and greater than 15000 nM.
The corresponding values for `COCC(O)CCN(c1cc(C)c(Nc2nc3ccccc3s2)nn1)c1nc(C(=O)O)cs1` (centres unmarked) [Example 93, 2-[[6-(1,3-Benzothiazol-2-ylamino)-5-methyl-pyridazin-3-yl]-(3-hydroxy-4-methoxy-butyl)amino]thiazole-4-carboxylic acid] are 6.8 nM, 6.4 nM, greater than 15000 nM and 9400 nM.
The corresponding values for `Cc1cc(N(C)c2nc(C(=O)O)c(C3CCN(S(C)(=O)=O)CC3)s2)nnc1Nc1nc2ccccc2s1` [Example 94, 2-({6-[(1,3-Benzothiazol-2-yl)amino]-5-methylpyridazin-3-yl}(methyl)amino)-5-(1-methanesulfonylpiperidin-4-yl)-1,3-thiazole-4-carboxylic acid] are 67 nM, 51 nM, 4070 nM and no less than 10000 nM.
In the case of `Cc1cc(N(C)c2nc(C(=O)O)c(C3CCN(S(=O)(=O)Cc4ccccc4)CC3)s2)nnc1Nc1nc2ccccc2s1` [Example 95, 2-({6-[(1,3-Benzothiazol-2-yl)amino]-5-methylpyridazin-3-yl}(methyl)amino)-5-(1-phenylmethanesulfonylpiperidin-4-yl)-1,3-thiazole-4-carboxylic acid], the inhibitory constant (Ki) on BCLXL [1] was determined as 24 nM. For the same compound, the IC50 at BCLXL [2] is 22 nM; in the experiment with H146 cells, 9270 nM; in the experiment on MOLT-4 cells it was 5010 nM.
`COC(CO)CCN(c1cc(C)c(Nc2nc3ccccc3s2)nn1)c1nc(C(=O)O)cs1` (centres unmarked) [Example 98, 2-[[6-(1,3-Benzothiazol-2-ylamino)-5-methyl-pyridazin-3-yl]-(4-hydroxy-3-methoxy-butyl)amino]thiazole-4-carboxylic acid]: on BCLXL [1], the inhibitory constant (Ki) was 2.3 nM. Besides, the values for the IC50 on BCLXL [2], in the experiment on H146 cells and in the experiment on MOLT-4 cells were 1.8 nM, greater than 15000 nM and greater than 15000 nM, respectively.
Consider `Cc1cc(N(C)c2nc(C(=O)O)c(CCCOc3ccc(C#CC[N+](C)(C)CCCS(=O)(=O)[O-])cc3F)s2)nnc1Nc1nc2ccccc2s1` [Example 101, 3-[3-[4-[3-[2-[[6-(1,3-Benzothiazol-2-ylamino)-5-methyl-pyridazin-3-yl]-methyl-amino]-4-carboxy-thiazol-5-yl]propoxy]-3-fluoro-phenyl]prop-2-ynyl-dimethyl-ammonio]propane-1-sulfonate], for which the inhibition constant (Ki) at BCLXL [1] was less than 1 nM. Also, the IC50 was determined as 0.0022 nM at BCLXL [2], 1190 nM in the experiment with H146 cells and 483 nM in the experiment on MOLT-4 cells.
The corresponding values for `CNCC#Cc1ccc(OCCCc2sc(N(CCC(O)CO)c3cc(C)c(Nc4nc5ccccc5s4)nn3)nc2C(=O)O)c(F)c1` (centres unmarked) [Example 108, 2-[[6-(1,3-Benzothiazol-2-ylamino)-5-methyl-pyridazin-3-yl]-(3,4-dihydroxybutyl)amino]-5-[3-[2-fluoro-4-[3-(methylamino)prop-1-ynyl]phenoxy]propyl]thiazole-4-carboxylic acid] are less than 1 nM, 0.0066 nM, 22.3 nM and 46.7 nM.
The corresponding values for `CNCC#Cc1ccc(OCCCc2sc(N(CCCC(O)CO)c3cc(C)c(Nc4nc5ccccc5s4)nn3)nc2C(=O)O)c(F)c1` (centres unmarked) [Example 119, 2-[[6-(1,3-Benzothiazol-2-ylamino)-5-methyl-pyridazin-3-yl]-(4,5-dihydroxypentyl)amino]-5-[3-[2-fluoro-4-[3-(methylamino)prop-1-ynyl]phenoxy]propyl]thiazole-4-carboxylic acid] are less than 1 nM, 0.006 nM, 21.4 nM and 97.4 nM.
As to `Cc1cc(N(CCC(O)CO)c2nc(C(=O)O)c(CCCOc3ccc(C#CCN(C)C)cc3F)s2)nnc1Nc1nc2ccccc2s1` (centres unmarked) [Example 123, 2-[[6-(1,3-Benzothiazol-2-ylamino)-5-methyl-pyridazin-3-yl]-(3,4-dihydroxybutyl)amino]-5-[3-[4-[3-(dimethylamino)prop-1-ynyl]-2-fluoro-phenoxy]propyl]thiazole-4-carboxylic acid], on BCLXL [1], the Ki was less than 1 nM. Besides, the IC50 worked out at 0.004 nM at BCLXL [2], 6.25 nM in the experiment on H146 cells and 16.5 nM in the experiment on MOLT-4 cells.
